According to the supplement of paper PMC10307832:

Assays:
Assay in all cases: relative viability (nuclei count vs DMSO), 5 days (fraction); higher = more cells survive
[1] = compound: CNC(=O)c1ccccc1Sc1ccc2c(/C=C/c3ccccn3)n[nH]c2c1 [Axitinib] + O=C(CCCCCCC(=O)Nc1ccccc1)NO [Vorinostat] (partner 1 µM)
Procedure, shortened: (§1)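 Relative viability equals treated-well nuclei counts divided by vehicle-well nuclei counts. Counts came from 4× images of lung cancer cell lines grown in 1536-well plates for 5 days after pin-tool dosing on the day after seeding. Dosing used one drug alone or a fixed anchor-drug dose plus five library-drug doses (not always all listed) in √10 steps, and values are medians of duplicate plates.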

[2] = compound: CNC(=O)c1ccccc1Sc1ccc2c(/C=C/c3ccccn3)n[nH]c2c1 [Axitinib] + C[C@]1(O)C[C@@H](c2nc(-c3ccc4ccc(-c5ccccc5)nc4c3)c3c(N)nccn32)C1 [Linsitinib] (partner 1 µM)
Procedure, shortened: as §1

[3] = compound: CNC(=O)c1ccccc1Sc1ccc2c(/C=C/c3ccccn3)n[nH]c2c1 [Axitinib] + CC(=O)c1c(C)c2cnc(Nc3ccc(N4CCNCC4)cn3)nc2n(C2CCCC2)c1=O [Palbociclib] (partner 0.5 µM)
Procedure, shortened: as §1

[4] = compound: Nc1nc(Nc2ccc3c(c2)CC[C@@H](N2CCCC2)CC3)nn1-c1cc2c(nn1)-c1ccccc1CCC2 [Bemcentinib] + C[C@]1(O)C[C@@H](c2nc(-c3ccc4ccc(-c5ccccc5)nc4c3)c3c(N)nccn32)C1 [Linsitinib] (partner 1 µM)
Procedure, shortened: as §1

Row | Cell Line | relative viability ([1]; first compound 0.005 µM) | relative viability ([1]; first compound 0.01581 µM) | relative viability ([1]; first compound 0.05 µM) | relative viability ([1]; first compound 0.1581 µM) | relative viability ([1]; first compound 0.5 µM) | relative viability ([2]; first compound 0.005 µM) | relative viability ([2]; first compound 0.01581 µM) | relative viability ([2]; first compound 0.05 µM) | relative viability ([2]; first compound 0.1581 µM) | relative viability ([2]; first compound 0.5 µM) | relative viability ([3]; first compound 0.005 µM) | relative viability ([3]; first compound 0.01581 µM) | relative viability ([3]; first compound 0.05 µM) | relative viability ([3]; first compound 0.1581 µM) | relative viability ([3]; first compound 0.5 µM) | relative viability ([4]; first compound 0.04 µM) | relative viability ([4]; first compound 0.1265 µM) | relative viability ([4]; first compound 0.4 µM) | relative viability ([4]; first compound 1.265 µM) | relative viability ([4]; first compound 4 µM)
1 | NCI-H727 | 1.16 | 1.33 | 1.16 | 1.35 | 1.21 | 0.415 | 0.246 | 0.311 | 0.246 | 0.432 | 0.597 | 0.66 | 0.596 | 0.673 | 0.613 | 0.331 | 0.286 | 0.288 | 0.3 | 0.293
2 | NCI-H838 | 0.814 | 0.725 | 0.792 | 0.707 | 0.752 | 1.04 | 1.01 | 1.1 | 1 | 1.19 | 0.246 | 0.229 | 0.233 | 0.226 | 0.23 | 0.995 | 1.08 | 1.02 | 1.08 | 1.05
3 | NCI-H1755 | 0.77 | 0.8 | 0.797 | 0.714 | 0.572 | 1.04 | 0.963 | 0.99 | 1.02 | 1.03 | 0.472 | 0.423 | 0.462 | 0.512 | 0.42 | 1.03 | 1.02 | 1.04 | 1.04 | 1.11
4 | EMC-BAC-2 | 0.469 | 0.371 | 0.528 | 0.445 | 0.438 | 0.874 | 0.781 | 0.813 | 0.782 | 0.837 | 0.522 | 0.562 | 0.49 | 0.508 | 0.533 | 0.816 | 0.845 | 0.879 | 0.889 | 0.871
5 | EKVX | 0.804 | 0.687 | 0.797 | 0.686 | 0.805 | 1.04 | 0.849 | 0.946 | 0.997 | 1.08 | 0.402 | 0.368 | 0.433 | 0.381 | 0.358 | 1.06 | 1.19 | 1.15 | 1.26 | 1.15
6 | NCI-H647 | 0.63 | 0.71 | 0.572 | 0.548 | 0.605 | 1.23 | 1.27 | 1.19 | 1.25 | 1.44 | 0.554 | 0.375 | 0.475 | 0.395 | 0.421 | 1.17 | 1.35 | 1.12 | 1.28 | 1.17
7 | NCI-H358 | 0.698 | 0.675 | 0.689 | 0.573 | 0.726 | 0.729 | 0.803 | 0.852 | 0.727 | 0.848 | 0.17 | 0.159 | 0.143 | 0.129 | 0.13 | 0.77 | 0.795 | 0.788 | 0.668 | 0.796
8 | LU99A | 0.514 | 0.472 | 0.56 | 0.465 | 0.409 | 0.611 | 0.561 | 0.5 | 0.483 | 0.553 | 0.408 | 0.416 | 0.394 | 0.438 | 0.417 | 0.524 | 0.555 | 0.56 | 0.499 | 0.562
